According to patent US10265331B2, “Prevention or treatment agent for hepatic fibrosis” (priority 2012, dated 2019):

Key:
[1] = system: chronic hepatitis C model mouse (Cre/loxP/HCV-MxCre Tg mouse); test: Treatment effect on hepatic fibrosis by histological staining of liver of model mouse; format: in vivo
Procedure: The expression of Cre in the liver of these mice was induced by intraperitoneal injection of polyinosinic-polycytidylic acid [Poly(I:C)] (purchased from GE Healthcare UK Ltd. (Buckinghamshire, England)). That is, 300 μL of poly(I:C) solution (1 mg/mL phosphate buffered saline [PBS]) was intraperitoneally injected, after lapse of 2 months from birth, […] 3 times at 48 hr intervals. HCV gene expression can be induced in almost all hepatocytes by performing this poly(I:C) administration operation once.
A CBP/β-catenin inhibitor was intraperitoneally administered to the CN2-29^(+/−)/MxCre^(+/−) mouse obtained in Example 1, and whether the CBP/β-catenin inhibitor has a treatment effect on hepatic fibrosis was examined by histological staining of the hepatic tissues collected from the model mouse.
A CBP/β-catenin inhibitor was dissolved in commercially available PBS (pH 7.6), and the pH was adjusted again to 7.6 with an aqueous sodium hydroxide solution to give a 40 mg/ml CBP/β-catenin inhibitor solution. This solution (250 μl) was filled in an osmotic pressure pump (ALZET mini-osmotic pump model 2006) and embedded subcutaneously in the back of mouse, whereby a CBP/β-catenin inhibitor was administered at 0.15 μl/hr for 42 days in a sustained manner. For the control group, commercially available PBS (pH7.6) was similarly filled in an osmotic pressure pump and administered as a vehicle by embedding same subcutaneously in the back of mouse.
Autopsy was performed on day 42 from the administration of the CBP/β-catenin inhibitory compound of (1), the liver was removed and histologically searched.
As for staining, the whole image of the tissue was stained and observed by hematoxylin-eosin staining (HE staining), and fiber was stained and observed by silver staining and Azan staining.
A tissue sample was fixed with 4% para-formaldehyde in PBS, embedded in paraffin and sliced (thickness 4 μm). The obtained section was subjected to hematoxylin-eosin staining (HE), silver staining and Azan staining.
Hematoxylin-eosin staining was performed according to the method described in a handbook of histopathological staining (Kiyoyuki Takahashi, Igaku-Shoin).
Silver staining was performed according to the method described in a handbook of histopathological staining (Kiyoyuki Takahashi, Igaku-Shoin).
Azan staining was performed according to the method described in a handbook of histopathological staining (Kiyoyuki Takahashi, Igaku-Shoin).

CBP/β-catenin = CBP/β-catenin (Homo sapiens, UniProt Q92793); conditions: reporter assay of WO 2009/148192; cited from earlier work
Sequence of CBP/β-catenin (Q92793 whole entry): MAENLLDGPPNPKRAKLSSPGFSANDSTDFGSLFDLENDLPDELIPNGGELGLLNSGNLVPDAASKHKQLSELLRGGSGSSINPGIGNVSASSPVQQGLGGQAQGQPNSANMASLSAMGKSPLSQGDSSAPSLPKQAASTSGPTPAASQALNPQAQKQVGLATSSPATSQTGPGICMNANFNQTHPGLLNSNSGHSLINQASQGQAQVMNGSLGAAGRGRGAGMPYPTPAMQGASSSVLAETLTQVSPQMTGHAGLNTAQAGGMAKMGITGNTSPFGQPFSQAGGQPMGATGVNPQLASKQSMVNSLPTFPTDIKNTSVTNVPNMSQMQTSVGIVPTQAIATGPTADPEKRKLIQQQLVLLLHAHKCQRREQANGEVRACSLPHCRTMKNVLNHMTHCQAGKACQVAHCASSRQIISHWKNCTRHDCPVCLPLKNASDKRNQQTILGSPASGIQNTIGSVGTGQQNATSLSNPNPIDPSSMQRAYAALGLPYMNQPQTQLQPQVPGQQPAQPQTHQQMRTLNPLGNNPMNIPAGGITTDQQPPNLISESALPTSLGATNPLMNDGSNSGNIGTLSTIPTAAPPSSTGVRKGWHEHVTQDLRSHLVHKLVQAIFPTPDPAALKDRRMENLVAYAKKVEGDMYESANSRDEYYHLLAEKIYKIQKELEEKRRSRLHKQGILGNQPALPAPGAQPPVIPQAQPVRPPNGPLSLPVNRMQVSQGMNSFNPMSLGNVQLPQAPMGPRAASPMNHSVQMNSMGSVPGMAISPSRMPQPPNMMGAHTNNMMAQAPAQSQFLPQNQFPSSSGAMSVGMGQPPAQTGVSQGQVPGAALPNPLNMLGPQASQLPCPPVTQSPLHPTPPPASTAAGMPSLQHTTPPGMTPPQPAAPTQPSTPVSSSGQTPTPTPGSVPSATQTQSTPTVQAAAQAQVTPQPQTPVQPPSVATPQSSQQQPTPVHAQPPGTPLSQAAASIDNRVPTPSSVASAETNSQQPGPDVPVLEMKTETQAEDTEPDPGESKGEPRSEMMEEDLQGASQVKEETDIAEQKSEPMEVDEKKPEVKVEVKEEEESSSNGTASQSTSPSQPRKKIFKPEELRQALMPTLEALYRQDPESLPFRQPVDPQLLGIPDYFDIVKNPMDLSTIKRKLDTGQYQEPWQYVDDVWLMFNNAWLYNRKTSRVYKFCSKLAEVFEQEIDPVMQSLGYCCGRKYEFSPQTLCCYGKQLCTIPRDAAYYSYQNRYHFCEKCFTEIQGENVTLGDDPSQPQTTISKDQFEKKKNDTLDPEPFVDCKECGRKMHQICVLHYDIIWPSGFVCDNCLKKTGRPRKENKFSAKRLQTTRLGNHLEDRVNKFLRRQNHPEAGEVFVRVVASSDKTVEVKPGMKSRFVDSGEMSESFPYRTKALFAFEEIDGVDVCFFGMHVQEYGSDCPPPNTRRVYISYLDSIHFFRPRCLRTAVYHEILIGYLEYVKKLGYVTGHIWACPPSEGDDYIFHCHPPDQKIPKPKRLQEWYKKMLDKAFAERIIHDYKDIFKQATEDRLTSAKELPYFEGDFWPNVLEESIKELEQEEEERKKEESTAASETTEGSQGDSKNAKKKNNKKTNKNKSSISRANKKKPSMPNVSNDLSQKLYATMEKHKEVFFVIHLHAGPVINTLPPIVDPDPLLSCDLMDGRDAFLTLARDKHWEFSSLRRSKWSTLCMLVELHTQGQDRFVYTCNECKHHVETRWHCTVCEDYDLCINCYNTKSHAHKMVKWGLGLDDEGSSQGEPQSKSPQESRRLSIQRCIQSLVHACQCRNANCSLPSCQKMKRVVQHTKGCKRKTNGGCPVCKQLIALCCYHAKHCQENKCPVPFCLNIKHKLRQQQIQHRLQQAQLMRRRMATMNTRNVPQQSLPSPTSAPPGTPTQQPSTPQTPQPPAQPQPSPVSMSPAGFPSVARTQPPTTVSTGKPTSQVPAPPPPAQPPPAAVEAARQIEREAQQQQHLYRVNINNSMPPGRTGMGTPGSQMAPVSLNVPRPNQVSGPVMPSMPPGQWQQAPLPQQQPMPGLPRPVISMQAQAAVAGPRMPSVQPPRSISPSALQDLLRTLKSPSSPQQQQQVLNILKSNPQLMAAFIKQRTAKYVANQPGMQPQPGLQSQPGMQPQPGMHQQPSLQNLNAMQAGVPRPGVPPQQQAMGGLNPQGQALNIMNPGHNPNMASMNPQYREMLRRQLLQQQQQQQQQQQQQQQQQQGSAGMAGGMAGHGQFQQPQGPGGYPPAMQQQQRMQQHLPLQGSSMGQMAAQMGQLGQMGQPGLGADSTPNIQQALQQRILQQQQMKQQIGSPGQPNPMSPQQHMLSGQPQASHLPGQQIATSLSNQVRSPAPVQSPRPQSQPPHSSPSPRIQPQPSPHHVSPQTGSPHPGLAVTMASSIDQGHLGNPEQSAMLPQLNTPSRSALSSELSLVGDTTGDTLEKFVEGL

## C[C@H]1C2N(C(=O)CN(C)N2C(=O)NCc2ccccc2)[C@@H](Cc2ccc(OP(=O)(O)O)cc2)C(=O)N1Cc1cccc2cccnc12 (stereo partly drawn) [CBP/β-catenin inhibitory compound, 4-(((6S,9S)-1-(benzylcarbamoyl)-2,9-dimethyl-4,7-dioxo-8-(quinolin-8-ylmethyl)octahydro-1H-pyrazino[2,1-c][1,2,4]triazin-6-yl)methyl)phenyl dihydrogen phosphate]
[1]; CN2-29(+/-)/MxCre(+/-) mouse, 40 mg/ml solution by subcutaneous osmotic pump, 0.15 μl/hr for 42 days, HE, silver and Azan staining (FIG. 2-4)
  hepatic lobule structure (defibrosing action): improved hepatic lobule structure
[1]; administration for 42 days, FIG. 2
  hepatocyte cord structure of liver tissue, hematoxylin-eosin staining: normalized to take a cord-like form
[1]; administration for 42 days, FIG. 3
  staining of reticular fiber, silver staining: weakened and normalized
[1]; administration for 42 days, FIG. 4
  staining of collagenous fibers, Azan staining: normalized
CBP/β-catenin
  CBP/β-catenin inhibitory action: confirmed
